Source: patent publication US12685312B2, “Sulfonamide apyrase inhibitors” (Texas Crop Science, Inc., priority 2022, dated 2026)

The molecules below were run on apyrase (assay: Screen for apyrase inhibitors (Method 1, in vitro phosphate-release absorbance assay)). Settings: inhibitor conc at 1 mM stock, 1 hr room temperature, absorbance 630 nm; rounded average of two assay results.
Format: biochemical
In short: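 Phosphate-release colorimetric assay (Windsor method) in 60 mM Hepes, 3 mM MgCl2, 3 mM CaCl2, 3 mM ATP, pH 6.5, with compound or DMSO control added. Released phosphate developed with ammonium molybdate and ascorbic acid/TCA, then stopped with citrate/acetic acid.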

% Inhibition of Apyrase	SMILES
59%	O=C(Nc1cccc(NS(=O)(=O)c2ccc(Cl)cc2)c1)c1ccc(F)cc1F [I-343, N-(3-((4-chlorophenyl)sulfonamido)phenyl)-2,4-difluorobenzamide]
29%	O=C(Nc1nccs1)c1cccc(NS(=O)(=O)c2ccc3c(c2)OCCO3)c1 [I-660, 3-((2,3-dihydrobenzo[b][1,4]dioxine)-6-sulfonamido)-N-(thiazol-2-yl)benzamide]
64%	CSc1cccc(NC(=O)c2cccc(S(=O)(=O)Nc3ccc4c(c3)OCO4)c2)c1 [I-248, 3-(N-(benzo[d][1,3]dioxol-5-yl)sulfamoyl)-N-(3-(methylthio)phenyl)benzamide]
59%	O=C(c1cc(S(=O)(=O)Nc2cccc(C(F)(F)F)c2)ccc1Cl)N1CCCc2ccccc21 [I-474, 4-chloro-3-(1,2,3,4-tetrahydroquinoline-1-carbonyl)-N-(3-(trifluoromethyl)phenyl)benzenesulfonamide]
59%	O=C(Nc1ccc(S(=O)(=O)Nc2cccc(C(F)(F)F)c2)cc1)c1ccc(F)cc1Cl [I-977, 2-chloro-4-fluoro-N-(4-(N-(3-(trifluoromethyl)phenyl)sulfamoyl)phenyl) benzamide]
43%	Cc1ccc(S(=O)(=O)N(C)c2ccc(C(=O)Nc3ccccc3OC(F)F)cc2)cc1 [I-947, N-(2-(difluoromethoxy)phenyl)-4-((N,4-dimethylphenyl)sulfonamido)benzamide]
54%	O=C(Nc1cc(Cl)ccc1NS(=O)(=O)c1ccccc1F)c1ccc(NC(=O)C2CC2)cc1 [I-834, N-(5-chloro-2-((2-fluorophenyl)sulfonamido)phenyl)-4-(cyclopropanecarboxamido)benzamide]
69%	O=C(Nc1ccc(OC(F)F)cc1)c1cccc(S(=O)(=O)Nc2ccc3c(c2)OCO3)c1 [I-243, 3-(N-(benzo[d][1,3]dioxol-5-yl)sulfamoyl)-N-(4-(difluoromethoxy)phenyl)benzamide]
30%	COc1ccccc1NS(=O)(=O)c1ccc(C(=O)Nc2ccc3c(c2)OCO3)cc1 [I-409, N-(benzo[d][1,3]dioxol-5-yl)-4-(N-(2-methoxyphenyl)sulfamoyl)benzamide]
37%	CN(C(=O)c1ccccc1S(=O)(=O)N(C)c1ccccc1)c1ccccc1 [I-815, N-methyl-2-(N-methyl-N-phenylsulfamoyl)-N-phenylbenzamide]
53%	Cc1ccc(NC(=O)c2sccc2C)c(S(=O)(=O)Nc2ccc(I)cc2)c1 [I-823, N-(2-(N-(4-iodophenyl)sulfamoyl)-4-methylphenyl)-3-methylthiophene-2-carboxamide]
57%	O=C(Nc1ccc(Cl)cc1)c1cccc(S(=O)(=O)N2CCc3ccccc32)c1 [I-503, N-(4-chlorophenyl)-3-(indolin-1-ylsulfonyl)benzamide]
65%	O=C(Nc1cccc(S(=O)(=O)Nc2ccc(Br)cc2)c1)c1ccc2c(c1)OCO2 [I-232, N-(3-(N-(4-bromophenyl)sulfamoyl)phenyl)benzo[d][1,3] dioxole-5-carboxamide]
58%	O=C(Nc1cccc(S(=O)(=O)Nc2cccc(C(F)(F)F)c2)c1)c1cc2ccccc2o1 [I-715, N-(3-(N-(3-(trifluoromethyl)phenyl)sulfamoyl)phenyl) benzofuran-2-carboxamide]
60%	COc1ccc(NS(=O)(=O)c2cc(C)ccc2NC(=O)c2cc(C)oc2C)cc1 [I-818, N-(2-(N-(4-methoxyphenyl)sulfamoyl)-4-methylphenyl)-2,5-dimethylfuran-3-carboxamide]
60%	O=C(Nc1cccc([N+](=O)[O-])c1)c1cc(S(=O)(=O)Nc2cccc(F)c2)ccc1Cl [I-11, 2-chloro-5-(N-(3-fluorophenyl)sulfamoyl)-N-(3-nitrophenyl)benzamide]
56%	O=C(Nc1cccc(S(=O)(=O)Nc2ccccc2)c1)c1cccc(Cl)n1 [I-729, 6-chloro-N-(3-(N-phenylsulfamoyl)phenyl)picolinamide]
55%	O=C(Nc1ccc2c(c1)OCCO2)c1cccc(S(=O)(=O)N2CCc3ccccc32)c1 [I-523, N-(2,3-dihydrobenzo[b][1,4]dioxin-6-yl)-3-(indolin-1-ylsulfonyl)benzamide]

Further lines, the molecule ahead of its results:

SMILES	% Inhibition of Apyrase
O=C(Nc1cccc(S(=O)(=O)N2CCOCC2)c1)c1ccc(S(=O)(=O)Nc2ccc(Cl)cc2)cc1 [I-393, 4-(N-(4-chlorophenyl)sulfamoyl)-N-(3-(morpholinosulfonyl)phenyl)benzamide]	57%
O=C(Nc1ccccc1)c1cccc(NS(=O)(=O)c2cccs2)c1 [I-658, N-phenyl-3-(thiophene-2-sulfonamido)benzamide]	32%
O=C(Nc1ccccc1NS(=O)(=O)c1cccs1)c1ccc(Br)cc1 [I-830, 4-bromo-N-(2-(thiophene-2-sulfonamido)phenyl)benzamide]	60%
COc1cccc(S(=O)(=O)Nc2ccc(C(=O)Nc3cccc(C(F)(F)F)c3)cc2)c1 [I-916, 4-((3-methoxyphenyl)sulfonamido)-N-(3-(trifluoromethyl)phenyl)benzamide]	58%
O=C(Nc1ccc(F)cc1)c1cccc(S(=O)(=O)Nc2ccc3c(c2)OCO3)c1 [I-216, 3-(N-(benzo[d][1,3]dioxol-5-yl)sulfamoyl)-N-(4-fluorophenyl)benzamide]	71%
Cc1nc2cc(NC(=O)c3cccc(NS(=O)(=O)c4cccs4)c3)ccc2o1 [I-664, N-(2-methylbenzo[d]oxazol-5-yl)-3-(thiophene-2-sulfonamido)benzamide]	24%
COc1ccc(Cl)cc1NS(=O)(=O)c1cccc(C(=O)Nc2ccc(N(C)C)nc2)c1 [I-599, 3-(N-(5-chloro-2-methoxyphenyl)sulfamoyl)-N-(6-(dimethylamino)pyridin-3-yl)benzamide]	30%
CC(=O)c1cc2c(cc1NC(=O)c1cccc(S(=O)(=O)N3CCc4ccccc43)c1)OCO2 [I-584, N-(6-acetylbenzo[d][1,3]dioxol-5-yl)-3-(indolin-1-ylsulfonyl)benzamide]	46%
O=C(Nc1ccc(Br)cc1F)c1cccc(S(=O)(=O)N2CCc3ccccc32)c1 [I-470, N-(4-bromo-2-fluorophenyl)-3-(indolin-1-ylsulfonyl)benzamide]	59%
COc1ccccc1N(C)S(=O)(=O)c1ccc(C(=O)N2CCc3ccccc32)cc1 [I-870, 4-(indoline-1-carbonyl)-N-(2-methoxyphenyl)-N-methylbenzenesulfonamide]	57%
O=C(c1ccccc1NS(=O)(=O)c1cccc(C(F)(F)F)c1)N1CCc2ccccc21 [I-375, N-(2-(indoline-1-carbonyl)phenyl)-3-(trifluoromethyl)benzenesulfonamide]	43%
COc1ccc([N+](=O)[O-])cc1NC(=O)c1cccc(S(=O)(=O)Nc2cc(C(F)(F)F)ccc2Cl)c1 [I-251, 3-(N-(2-chloro-5-(trifluoromethyl)phenyl)sulfamoyl)-N-(2-methoxy-5-nitrophenyl)benzamide]	62%
CCOc1ccc(NC(=O)c2ccc(NS(=O)(=O)c3cccc(C(F)(F)F)c3)cc2)cc1 [I-900, N-(4-ethoxyphenyl)-4-((3-(trifluoromethyl)phenyl)sulfonamido) benzamide]	65%
